# Laboratory results published in US12351571B2, “Substituted quinoxaline compounds as inhibitors of FGFR tyrosine kinases” (ARRAY BIOPHARMA INC., priority 2018, dated 2025).
# What was measured:
# [1] = target: dephosphorylated FGFR2 (Homo sapiens (Human), UniProt P21802); experiment: FGFR Enzyme Binding Assay (HTRF tracer displacement), FGFR2; conditions: 5 nM dephosphorylated FGFR2, 60 minute incubation at 22° C.; read-out: FGFR2 Enz Binding IC50
# Procedure: The potency of compounds inhibiting human isoforms of FGFR kinase was determined using Life Technologies' Homogeneous Time Resolved Fluorescence (HTRF)-based binding assay technology. An incubation was conducted with either 5 nM dephosphorylated FGFR1 (Array Biopharma, p1702; SEQ ID NO: 1, amino acids 458 to 765, dephosphorylated by co-expression with PTP1b (protein tyrosine phosphatase 1B)), 5 nM dephosphorylated FGFR2 (Life Technologies, Cat. No. PV4106 that had been dephosphorylated with Lambda protein phosphatase (New England Biolabs, cat #P0753)) or 5 nM phosphorylated FGFR3 (Array Biopharma, p1836; SEQ ID NO: 5, amino acids 449 to 759), 50 nM Kinase Tracer 236 (Life Technologies Cat. No. PR9078A), 2 nM Biotin-anti-6HIS (Life Technologies Cat. No. PV6090) and 2 nM Europium-Streptavidin (Life Technologies Cat. No. PV6025) along with test compound in a buffer consisting of 50 mM HEPES ((4-(2-hydroxyethyl)-1-piperazineethanesulfonic acid, pH 7.5), 5 mM MgCl2, 0.005% Triton X-100, 1 mM DTT, 1 mM NaVO4 and 2% DMSO in a final volume of 12 μL Compounds were typically prepared as a 3-fold or 4-fold serial dilution in DMSO and added to the assay to give the appropriate final concentration. After a 60 minute incubation at 22° C., the extent of tracer displacement was determined using a PerkinElmer EnVision multimode plate reader via HTRF dual wavelength detection, and the percent of control (POC) was calculated using a ratiometric emission factor. One hundred POC was determined using no test compound, and 0 POC was determined in the presence of 1 μM of an appropriate control inhibitor. A 4-parameter logistic curve was fit to the POC values as a function of the concentration of compound, and the IC50 value was the point where the best-fit curve crossed 50 POC.
# [2] = target: human wild type FGFR2 (Homo sapiens (Human), UniProt P21802); experiment: FGFR2 pFGFR Cell Assay; format: cell-based; conditions: HEK-293 cells, 1 hour compound, 30 ng/ml human FGF-acidic, ELISA
# Procedure: (§1) HEK-293 cells transfected with dox-inducible human wild type FGFR2 (SEQ ID NO: 3) were plated in a collagen or poly-D-lysine coated 96 well flat bottom plates at 4×10^5 cells/well in complete DMEM medium containing 10% FBS and 1 μg/ml doxycycline and allowed to attach for 24 h at 37° C., 5% CO2. Cells were treated with compound using 1:3 serial dilutions with a maximum final concentration of 5 μM. Compound was incubated on cells for 1 hour at 37° C., 5% CO2. Cells were then stimulated with a final concentration of 30 ng/ml human FGF-acidic (R&D Systems Cat number 232-FA/CF) for 5 minutes at 37° C., 5% CO2. Medium was removed and cells were lysed with lysis buffer containing phosphatase and protease inhibitors. Phospho FGFR2 was measured by ELISA (R&D Systems cat. no. DYC684). The ELISA captures total FGFR2 and detects total phospho tyrosine. Optical density was measured for each well using a Versamax reader at a wavelength of 450 nm. 100 POC was determined using no test compounds and 0 POC was determined using a control compound. The POC values were fit to a 4-parameter logistic curve as a function of the concentration of the compound, and the IC50 value is the point where the curve crosses 50 POC.
# [3] = target: human wild type FGFR3 (Homo sapiens (Human), UniProt P22607); experiment: FGFR3 pFGFR Cell Assay; format: cell-based; conditions: HEK-293 cells, 1 hour compound, 100 ng/ml human FGF-acidic, ELISA
# Procedure: as §1, with “FGFR3” for “FGFR2”, “5)” for “3)”, “top” for “maximum”, “100” for “30”, “FGF-acidic” for “FGF-acidic (R&D Systems Cat number 232-FA/CF)”, “cat DYC2719).” for “cat. no. DYC684).”
# human wild type FGFR3, sequence (P22607 23-806): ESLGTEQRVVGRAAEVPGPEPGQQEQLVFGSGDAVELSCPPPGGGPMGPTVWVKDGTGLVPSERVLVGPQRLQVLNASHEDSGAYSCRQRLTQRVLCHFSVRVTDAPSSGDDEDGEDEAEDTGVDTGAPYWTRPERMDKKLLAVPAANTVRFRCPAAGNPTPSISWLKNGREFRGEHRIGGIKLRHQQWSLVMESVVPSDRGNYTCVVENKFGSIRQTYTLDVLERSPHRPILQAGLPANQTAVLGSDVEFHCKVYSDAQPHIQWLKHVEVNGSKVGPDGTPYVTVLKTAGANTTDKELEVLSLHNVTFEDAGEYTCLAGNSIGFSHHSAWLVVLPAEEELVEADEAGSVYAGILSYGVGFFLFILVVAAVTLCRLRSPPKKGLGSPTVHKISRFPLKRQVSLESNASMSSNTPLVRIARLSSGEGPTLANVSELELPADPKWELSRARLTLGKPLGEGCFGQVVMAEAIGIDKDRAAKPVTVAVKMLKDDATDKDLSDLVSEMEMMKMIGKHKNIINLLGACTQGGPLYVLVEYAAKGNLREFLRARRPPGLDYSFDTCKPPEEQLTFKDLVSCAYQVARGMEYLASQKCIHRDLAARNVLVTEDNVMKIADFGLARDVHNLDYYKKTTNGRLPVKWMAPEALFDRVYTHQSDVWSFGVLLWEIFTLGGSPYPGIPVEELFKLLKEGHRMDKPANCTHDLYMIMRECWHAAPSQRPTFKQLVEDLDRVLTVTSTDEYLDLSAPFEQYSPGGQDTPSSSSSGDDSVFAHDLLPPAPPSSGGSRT
# human wild type FGFR2, sequence (P21802 22-821): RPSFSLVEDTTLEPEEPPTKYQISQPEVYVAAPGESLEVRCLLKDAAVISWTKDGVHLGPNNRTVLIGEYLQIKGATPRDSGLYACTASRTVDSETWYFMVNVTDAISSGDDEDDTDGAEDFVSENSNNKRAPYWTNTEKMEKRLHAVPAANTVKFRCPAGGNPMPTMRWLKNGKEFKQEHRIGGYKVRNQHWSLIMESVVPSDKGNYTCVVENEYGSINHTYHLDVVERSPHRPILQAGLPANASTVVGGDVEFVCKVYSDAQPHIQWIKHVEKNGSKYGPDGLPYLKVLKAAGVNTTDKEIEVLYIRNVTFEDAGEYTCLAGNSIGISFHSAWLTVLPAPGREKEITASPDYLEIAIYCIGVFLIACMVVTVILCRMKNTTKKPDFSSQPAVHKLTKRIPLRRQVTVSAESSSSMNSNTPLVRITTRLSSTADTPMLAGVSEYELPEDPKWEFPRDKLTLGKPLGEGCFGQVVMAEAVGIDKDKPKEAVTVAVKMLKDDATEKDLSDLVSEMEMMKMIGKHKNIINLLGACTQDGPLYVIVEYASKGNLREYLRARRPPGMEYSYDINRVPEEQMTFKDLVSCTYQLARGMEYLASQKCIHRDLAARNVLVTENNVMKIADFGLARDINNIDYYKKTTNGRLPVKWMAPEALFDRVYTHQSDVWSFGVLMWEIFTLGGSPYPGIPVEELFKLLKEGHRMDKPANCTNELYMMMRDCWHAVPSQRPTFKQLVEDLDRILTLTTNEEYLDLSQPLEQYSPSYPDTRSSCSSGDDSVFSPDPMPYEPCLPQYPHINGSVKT
# dephosphorylated FGFR2, sequence (P21802 22-821): as above
IC50 [1],IC50 [2],IC50 [3],Structure (SMILES)
3 nM,140 nM,35 nM,"C=CC(=O)N1CC(C(=O)N2CCC(n3cc(-c4cnc5ccc(Nc6cc(OC)cc(OC)c6)cc5n4)cn3)CC2)C1 [Example 1, 1-(3-(4-(4-(7-((3,5-dimethoxyphenyl)amino)quinoxalin-2-yl)-1H-pyrazol-1-yl)piperidine-1-carbonyl)azetidin-1-yl)prop-2-en-1-one]"
6 nM,117 nM,121 nM,"C=CC(=O)N1CC[C@@H](C(=O)N2CCC(n3cc(-c4cnc5ccc(Nc6cc(OC)cc(OC)c6)cc5n4)cn3)CC2)C1 [Example 2, (R)-1-(3-(4-(4-(7-((3,5-dimethoxyphenyl)amino)-quinoxalin-2-yl)-1H-pyrazol-1-yl)piperidine-1-carbonyl)pyrrolidin-1-yl)-prop-2-en-1-one]"
